The assay deals with HEK293 cells. Briefly: Preliminary screening as mRNA vectors, EGFP mRNA transfection of HEK293 cells. Format: cell-based. Conditions: EGFP mRNA 50 ng per well, 96-well plates; percentage of GFP fluorescent cells relative to total number of cells (Hoechst). In a few lines:
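HEK293 cells in DMEM plus 10% FBS transfected in 96-well format with 50 ng EGFP mRNA per well; Lipofectamine2000 served as positive control. Read-out is the percentage of GFP-fluorescent cells among total cells, counted by Hoechst nuclear stain.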

The structures appear in SMILES notation.

With `CCCCCCCCCCCCCCCCSc1nc(NCCN2CCCCC2)nc(SCCCCCC)n1` [Compound D4S6S16], the “Absolute mRNA transfection efficiency in HEK293 cells” value (“Absolute mRNA transfection efficiency” below) was found to be 5.1%.

As to `CCCCCCCCCCCCCCCCCCSc1nc(NCCN2CCCCC2)nc(SCCCCCC)n1` [Compound D4S6S18], the “Absolute mRNA transfection efficiency” value is recorded as 8.8%.

As for `CCCCCCCSc1nc(NCCCCCC)nc(NCCN2CCCCC2)n1` [Compound D4S7N6], the “Absolute mRNA transfection efficiency” value turned out to be 4.5%.

As to `CCCCCCCNc1nc(NCCN2CCCCC2)nc(SCCCCCCC)n1` [Compound D4S7N7], the “Absolute mRNA transfection efficiency” value stood at 3.4%.

As for `CCCCCCCCNc1nc(NCCN2CCCCC2)nc(SCCCCCCC)n1` [Compound D4S7N8], the “Absolute mRNA transfection efficiency” value is recorded as 0.5%.

In the case of `CCCCCCCCCNc1nc(NCCN2CCCCC2)nc(SCCCCCCC)n1` [Compound D4S7N9], the “Absolute mRNA transfection efficiency” value is recorded as 4.9%.

With `CCCCCCCCCCCNc1nc(NCCN2CCCCC2)nc(SCCCCCCC)n1` [Compound D4S7N11], the “Absolute mRNA transfection efficiency” value is on record as 1.0%.

`CCCCCCCCCCCCNc1nc(NCCN2CCCCC2)nc(SCCCCCCC)n1` [Compound D4S7N12]: the “Absolute mRNA transfection efficiency” value worked out at 0.6%.

As for `CCCCCCCCCCCCCNc1nc(NCCN2CCCCC2)nc(SCCCCCCC)n1` [Compound D4S7N13], the “Absolute mRNA transfection efficiency” value turned out to be 0.7%.

Consider `CCCCCCCCCCCCCCCNc1nc(NCCN2CCCCC2)nc(SCCCCCCC)n1` [Compound D4S7N15], for which the “Absolute mRNA transfection efficiency” value is listed as 2.6%.

With `CCCCCCCCCCCCCCCCNc1nc(NCCN2CCCCC2)nc(SCCCCCCC)n1` [Compound D4S7N16], the “Absolute mRNA transfection efficiency” value was 1.3%.

Regarding `CCCCCCCCCCCCCCCCCCNc1nc(NCCN2CCCCC2)nc(SCCCCCCC)n1` [Compound D4S7N18], the “Absolute mRNA transfection efficiency” value stood at 7.9%.

As to `CCCCCCCSc1nc(NCCN2CCCCC2)nc(SCCCCCCC)n1` [Compound D4S7S7], the “Absolute mRNA transfection efficiency” value is reported as 13.5%.

For `CCCCCCCCSc1nc(NCCN2CCCCC2)nc(SCCCCCCC)n1` [Compound D4S7S8], the “Absolute mRNA transfection efficiency” value was 5.9%.

Turning to `CCCCCCCCCSc1nc(NCCN2CCCCC2)nc(SCCCCCCC)n1` [Compound D4S7S9], the “Absolute mRNA transfection efficiency” value was found to be 3.7%.

Consider `CCCCCCCCCCSc1nc(NCCN2CCCCC2)nc(SCCCCCCC)n1` [Compound D4S7S10], for which the “Absolute mRNA transfection efficiency” value is 2.7%.

Regarding `CCCCCCCCCCCSc1nc(NCCN2CCCCC2)nc(SCCCCCCC)n1` [Compound D4S7S11], the “Absolute mRNA transfection efficiency” value worked out at 8.0%.

Turning to `CCCCCCCCCCCCSc1nc(NCCN2CCCCC2)nc(SCCCCCCC)n1` [Compound D4S7S12], the “Absolute mRNA transfection efficiency” value was determined as 9.2%.

Consider `CCCCCCCCCCCCCCSc1nc(NCCN2CCCCC2)nc(SCCCCCCC)n1` [Compound D4S7S14], for which the “Absolute mRNA transfection efficiency” value came to 8.3%.

Take `CCCCCCCCCCCCCCCSc1nc(NCCN2CCCCC2)nc(SCCCCCCC)n1` [Compound D4S7S15]: the “Absolute mRNA transfection efficiency” value amounted to 6.7%.

Turning to `CCCCCCCCCCCCCCCCSc1nc(NCCN2CCCCC2)nc(SCCCCCCC)n1` [Compound D4S7S16], the “Absolute mRNA transfection efficiency” value was 8.8%.

As for `CCCCCCCCCCCCCCCCCCSc1nc(NCCN2CCCCC2)nc(SCCCCCCC)n1` [Compound D4S7S18], the “Absolute mRNA transfection efficiency” value was found to be 4.5%.

With `CCCCCCCCSc1nc(NCCCCCC)nc(NCCN2CCCCC2)n1` [Compound D4S8N6], the “Absolute mRNA transfection efficiency” value was determined as 2.7%.

As to `CCCCCCCCSc1nc(NCCCCCCC)nc(NCCN2CCCCC2)n1` [Compound D4S8N7], the “Absolute mRNA transfection efficiency” value was 1.8%.

As to `CCCCCCCCNc1nc(NCCN2CCCCC2)nc(SCCCCCCCC)n1` [Compound D4S8N8], the “Absolute mRNA transfection efficiency” value turned out to be 0.6%.

With `CCCCCCCCCNc1nc(NCCN2CCCCC2)nc(SCCCCCCCC)n1` [Compound D4S8N9], the “Absolute mRNA transfection efficiency” value is 2.3%.

Consider `CCCCCCCCCCCNc1nc(NCCN2CCCCC2)nc(SCCCCCCCC)n1` [Compound D4S8N11], for which the “Absolute mRNA transfection efficiency” value amounted to 0.3%.

Regarding `CCCCCCCCCCCCNc1nc(NCCN2CCCCC2)nc(SCCCCCCCC)n1` [Compound D4S8N12], the “Absolute mRNA transfection efficiency” value turned out to be 3.5%.

For `CCCCCCCCCCCCCNc1nc(NCCN2CCCCC2)nc(SCCCCCCCC)n1` [Compound D4S8N13], the “Absolute mRNA transfection efficiency” value is given as 4.5%.

Take `CCCCCCCCCCCCCCCNc1nc(NCCN2CCCCC2)nc(SCCCCCCCC)n1` [Compound D4S8N15]: the “Absolute mRNA transfection efficiency” value is reported as 2.6%.

For `CCCCCCCCCCCCCCCCNc1nc(NCCN2CCCCC2)nc(SCCCCCCCC)n1` [Compound D4S8N16], the “Absolute mRNA transfection efficiency” value came to 1.9%.

For `CCCCCCCCCCCCCCCCCCNc1nc(NCCN2CCCCC2)nc(SCCCCCCCC)n1` [Compound D4S8N18], the “Absolute mRNA transfection efficiency” value amounted to 3.5%.

On to `CCCCCCCCSc1nc(NCCN2CCCCC2)nc(SCCCCCCCC)n1` [Compound D4S8S8], for which the “Absolute mRNA transfection efficiency” value stood at 9.9%.

Regarding `CCCCCCCCCSc1nc(NCCN2CCCCC2)nc(SCCCCCCCC)n1` [Compound D4S8S9], the “Absolute mRNA transfection efficiency” value stood at 14.3%.

On to `CCCCCCCCCCSc1nc(NCCN2CCCCC2)nc(SCCCCCCCC)n1` [Compound D4S8S10], for which the “Absolute mRNA transfection efficiency” value was 9.2%.

With `CCCCCCCCCCCSc1nc(NCCN2CCCCC2)nc(SCCCCCCCC)n1` [Compound D4S8S11], the “Absolute mRNA transfection efficiency” value worked out at 10.9%.

Turning to `CCCCCCCCCCCCSc1nc(NCCN2CCCCC2)nc(SCCCCCCCC)n1` [Compound D4S8S12], the “Absolute mRNA transfection efficiency” value stood at 1.0%.

Take `CCCCCCCCCSc1nc(NCCCCCC)nc(NCCN2CCCCC2)n1` [Compound D4S9N6]: the “Absolute mRNA transfection efficiency” value is reported as 0.3%.

As for `CCCCCCCCCSc1nc(NCCCCCCC)nc(NCCN2CCCCC2)n1` [Compound D4S9N7], the “Absolute mRNA transfection efficiency” value is recorded as 3.0%.

Turning to `CCCCCCCCCSc1nc(NCCCCCCCC)nc(NCCN2CCCCC2)n1` [Compound D4S9N8], the “Absolute mRNA transfection efficiency” value was 6.6%.

For `CCCCCCCCCNc1nc(NCCN2CCCCC2)nc(SCCCCCCCCC)n1` [Compound D4S9N9], the “Absolute mRNA transfection efficiency” value is recorded as 11.3%.

For the molecule `CCCCCCCCCCCNc1nc(NCCN2CCCCC2)nc(SCCCCCCCCC)n1` [Compound D4S9N11], the “Absolute mRNA transfection efficiency” value amounted to 17.4%.

Consider `CCCCCCCCCCCCNc1nc(NCCN2CCCCC2)nc(SCCCCCCCCC)n1` [Compound D4S9N12], for which the “Absolute mRNA transfection efficiency” value amounted to 9.5%.

On to `CCCCCCCCCCCCCNc1nc(NCCN2CCCCC2)nc(SCCCCCCCCC)n1` [Compound D4S9N13], for which the “Absolute mRNA transfection efficiency” value came to 10.8%.

On to `CCCCCCCCCCCCCCCNc1nc(NCCN2CCCCC2)nc(SCCCCCCCCC)n1` [Compound D4S9N15], for which the “Absolute mRNA transfection efficiency” value is 4.9%.

Regarding `CCCCCCCCCCCCCCCCNc1nc(NCCN2CCCCC2)nc(SCCCCCCCCC)n1` [Compound D4S9N16], the “Absolute mRNA transfection efficiency” value came to 2.2%.

On to `CCCCCCCCCCCCCCCCCCNc1nc(NCCN2CCCCC2)nc(SCCCCCCCCC)n1` [Compound D4S9N18], for which the “Absolute mRNA transfection efficiency” value is 8.3%.

For the molecule `CCCCCCCCCCSc1nc(NCCCCCC)nc(NCCN2CCCCC2)n1` [Compound D4S10N6], the “Absolute mRNA transfection efficiency” value worked out at 0.1%.

As to `CCCCCCCCCCSc1nc(NCCCCCCC)nc(NCCN2CCCCC2)n1` [Compound D4S10N7], the “Absolute mRNA transfection efficiency” value turned out to be 0.1%.

`CCCCCCCCCCSc1nc(NCCCCCCCC)nc(NCCN2CCCCC2)n1` [Compound D4S10N8]: the “Absolute mRNA transfection efficiency” value was determined as 0.1%.

Turning to `CCCCCCCCCCSc1nc(NCCCCCCCCC)nc(NCCN2CCCCC2)n1` [Compound D4S10N9], the “Absolute mRNA transfection efficiency” value amounted to 0.2%.

`CCCCCCCCCCCNc1nc(NCCN2CCCCC2)nc(SCCCCCCCCCC)n1` [Compound D4S10N11]: the “Absolute mRNA transfection efficiency” value is 0.8%.

As for `CCCCCCCCCCCCNc1nc(NCCN2CCCCC2)nc(SCCCCCCCCCC)n1` [Compound D4S10N12], the “Absolute mRNA transfection efficiency” value was 1.0%.

For `CCCCCCCCCCCCCNc1nc(NCCN2CCCCC2)nc(SCCCCCCCCCC)n1` [Compound D4S10N13], the “Absolute mRNA transfection efficiency” value is 0.3%.

As to `CCCCCCCCCCCCCCCNc1nc(NCCN2CCCCC2)nc(SCCCCCCCCCC)n1` [Compound D4S10N15], the “Absolute mRNA transfection efficiency” value is given as 1.5%.

For `CCCCCCCCCCCCCCCCNc1nc(NCCN2CCCCC2)nc(SCCCCCCCCCC)n1` [Compound D4S10N16], the “Absolute mRNA transfection efficiency” value was 14.7%.

With `CCCCCCCCCCCCCCCCCCNc1nc(NCCN2CCCCC2)nc(SCCCCCCCCCC)n1` [Compound D4S10N18], the “Absolute mRNA transfection efficiency” value amounted to 37.7%.

As for `CCCCCCCCCCCSc1nc(NCCCCCC)nc(NCCN2CCCCC2)n1` [Compound D4S11N6], the “Absolute mRNA transfection efficiency” value was 2.7%.

As to `CCCCCCCCCCCSc1nc(NCCCCCCC)nc(NCCN2CCCCC2)n1` [Compound D4S11N7], the “Absolute mRNA transfection efficiency” value is recorded as 2.3%.

With `CCCCCCCCCCCSc1nc(NCCCCCCCC)nc(NCCN2CCCCC2)n1` [Compound D4S11N8], the “Absolute mRNA transfection efficiency” value is listed as 4.3%.

In the case of `CCCCCCCCCCCSc1nc(NCCCCCCCCC)nc(NCCN2CCCCC2)n1` [Compound D4S11N9], the “Absolute mRNA transfection efficiency” value is 4.2%.

Turning to `CCCCCCCCCCCNc1nc(NCCN2CCCCC2)nc(SCCCCCCCCCCC)n1` [Compound D4S11N11], the “Absolute mRNA transfection efficiency” value is listed as 2.0%.

As for `CCCCCCCCCCCCNc1nc(NCCN2CCCCC2)nc(SCCCCCCCCCCC)n1` [Compound D4S11N12], the “Absolute mRNA transfection efficiency” value is reported as 8.9%.

Take `CCCCCCCCCCCCCNc1nc(NCCN2CCCCC2)nc(SCCCCCCCCCCC)n1` [Compound D4S11N13]: the “Absolute mRNA transfection efficiency” value was 15.4%.

(Values after patent US20230123334A1, “AMINO LIPID COMPOUND, PREPARATION METHOD THEREFOR, AND APPLICATION THEREOF” (SHENZHEN SHENXIN BIOTECHNOLOGY CO., LTD., priority 2020, published 2023).)
